Measured values as given in US12024543B2, “Micropeptides and use of same for modulating gene expression” (UNIVERSITE PAUL SABATIER TOULOUSE III, priority 2013, dated 2024).

What was measured:
[1] = tested on: AtmiR319a; assay: Expression of AtmiPEP319a2 (AtmiORF319a) in tobacco expressing AtmiR319a; type: in vivo, Nicotiana benthamiana; conditions: overexpression of AtmiORF319a
Method: (§1) At present, AtmiPEP165a and AtmiPEP319a2, identified in Arabidopsis thaliana, have already been characterized.
(§2) The total RNA was extracted from roots of M. truncatula or from tobacco leaves using the extraction kit RNeasy Plant Mini Kit (Qiagen). The reverse transcription was performed using the reverse transcriptase SuperScript II (Invitrogen) starting from 500 ng of total RNA. Three repetitions (n=3) were carried out, each with two technical repetitions. Each experiment was repeated from two to three times. The amplifications by qPCR were carried out using a LightCycler 480 System thermocycler (Roche Diagnostics) by the method described in Lauressergues et al. (Plant J., 72(3): 512-22, 2012).
(§3) For the miPEPs 165a and 319a, the corresponding miORFs were cloned into pBIN19 by the method described in Combier et al. (Genes & Dev, 22: 1549-1559, 2008).
(§4) The composite plants having roots transformed with Agrobacterium rhizogenes were obtained by the method described in Boisson-Dernier et al. (Mol Plant-Microbe Interact, 18: 1269-1276, 2005). The transformed roots were verified and selected by observations of DsRED with a binocular fluorescence magnifier. The control roots correspond to roots transformed with A. rhizogenes not containing the pPEX-DsRED vector. Transformation of the tobacco leaves was carried out by the method described in Combier et al. (Genes & Dev, 22: 1549-1559, 2008).

[2] = tested on: Medicago truncatula; assay: Number of lateral roots in M. truncatula; type: in vivo; conditions: vs control plant
Method: The surface of seeds of M. truncatula was sterilized and they were left to germinate on agar plates for 5 days at 4° C. in the dark. […] The lateral roots were counted every day. […] The mean values of the relative expression of the genes or of the production of lateral roots were analysed using the Student test or the Kruskal-Wallis test. The error bars represent the SEM (Standard Error of the Mean). The asterisks indicate a significant difference (p<0.05).

[3] = tested on: MtmiR171b; assay: Regulation of MtmiR171b by MtmiPEP171b1 in transformed tobacco leaves; type: in vivo, Nicotiana benthamiana
Method: In order to determine whether the mechanism of regulation of the microRNAs is conserved in other plant species, the regulation of MtmiR171b by MtmiPEP171b1 was tested in a different cellular model. For this, MtmiR171b and MtmiPEP171b1 were introduced into tobacco leaves.
The accumulation of MtmiR171b was measured in tobacco leaves transformed in order to express MtmiR171b of Medicago truncatula starting from wild-type pri-miRNA capable of producing MtmiPEP171b1, or starting from a mutated version of pri-miRNA incapable of producing MtmiPEP171b1 (in which the start codon ATG of MtmiORF171b has been replaced with ATT) (FIG. 6 and FIG. 20).
The accumulation of pre-MtmiR171b was measured in tobacco leaves transformed in order to express MtmiR171b of Medicago truncatula alone (control), or additionally expressing the wild-type MtmiORF171b of Medicago truncatula (35SmiPEP171b1 ATG), or a mutated version of MtmiORF171b in which the start codon ATG has been replaced with ATT (35SmiPEP171b1 ATT) (FIG. 7 and FIG. 21).
The leaves were watered by spraying with the peptides using peptide solutions at different concentrations (0.01, 0.1, 1 μM), firstly 12h before sampling and then a second time 30 min before sampling.
as §2
(§5) The DNA fragments of interest were amplified with Pfu polymerase (Promega). The DNA fragments were cloned using the XhoI and NotI enzymes into a pPEX-DsRED plasmid for an overexpression under the control of the constitutive strong promoter 35S, and using the KpnI-NcoI enzymes into a pPEX GUS plasmid for the reporter genes, by the method described in Combier et al. (Genes & Dev, 22: 1549-1559, 2008).
as §4

[4] = tested on: MtmiR171b; assay: Overexpression of MtmiPEP171b1 (MtmiORF171b) in M. truncatula roots, relative expression by qRT-PCR; type: in vivo, Medicago truncatula; conditions: vs control plant
Method: as §2, §5, §4

[5] = tested on: pre-MtmiR169, pre-MtmiR169a, pre-MtmiR171a, pre-MtmiR171h, pre-MtmiR393a, pre-MtmiR393b, pre-MtmiR396a, pre-MtmiR396b; assay: Specificity of miPEP171b1: expression of different microRNA precursors of M. truncatula; type: in vivo, Medicago truncatula; conditions: overexpression of MtmiPEP171b1 or treatment with MtmiPEP171b1 (0.1 μM), ratio to control roots
Method: The expression of different microRNA precursors of Medicago truncatula (MtmiR171b SEQ ID NO: 319, MtmiR169 SEQ ID NO: 367, MtmiR169a SEQ ID NO: 368, MtmiR171a SEQ ID NO: 369, MtmiR171h SEQ ID NO: 370, MtmiR393a SEQ ID NO: 371, MtmiR393b SEQ ID NO: 372, MtmiR396a SEQ ID NO: 373 and MtmiR396b SEQ ID NO: 374) was determined and compared between control plants and plants in which MtmiORF171b encoding MtmiPEP171b1 was overexpressed (FIG. 5A), or between control plants and plants grown on culture medium containing MtmiPEP171b1 (FIG. 5B).
as §2

[6] = tested on: MtmiR171b; assay: Watering of M. truncatula plants with synthetic MtmiPEP171b1, relative expression by qRT-PCR; type: in vivo, Medicago truncatula; conditions: watering once daily for 5 days with MtmiPEP171b1 at 0.01, 0.1 or 1 μM
Method: The surface of seeds of M. truncatula was sterilized and they were left to germinate on agar plates for 5 days at 4° C. in the dark. The young shoots were then grown on 12-cm square plates filled with Fahraeus medium without nitrogen and containing 7.5 μM phosphate (Lauressergues et al., Plant J., 72(3): 512-22, 2012). The lateral roots were counted every day. In pots, the plants were watered every other day with modified Long Ashton medium with low phosphorus content (Balzergue et al., Journal of Experimental Botany, (62)1049-1060, 2011).
The peptides were synthesized by Eurogentec or Smartox-Biotech. MtmiPEP171b1 was resuspended in a solution of 40% water/50% acetonitrile/10% acetic acid (v/v/v), and the other peptides were resuspended in water.
The RNA was extracted using the reagent Tri-Reagent (MRC) according to the manufacturer's instructions, except for precipitation of the RNA, which was carried out with 3 volumes of ethanol. The reverse transcription of the RNA was carried out using the specific stem-loop primer RTprimer171b in combination with hexamers for performing the reverse transcription of RNA of high molecular weight.
In brief, 1 μg of RNA was added to the stem-loop primer MIR171b (0.2 μM), the hexamer (500 ng), the buffer RT (1×), the enzyme SuperScript Reverse transcriptase (SSIII) (one unit), the dNTPs (0.2 mM each), DTT (0.8 mM) in a final reaction mixture of 25 μl. In order to carry out the reverse transcription, a reaction of pulsed reverse transcription was performed (40 repetitions of the following cycle: 16° C. for 2 minutes, 42° C. for one minute and 50° C. for one second, followed by a final inactivation of the reverse transcription at 85° C. for 5 minutes).
as §2
The mean values of the relative expression of the genes or of the production of lateral roots were analysed using the Student test or the Kruskal-Wallis test. The error bars represent the SEM (Standard Error of the Mean). The asterisks indicate a significant difference (p<0.05).

[7] = tested on: Arabidopsis thaliana; assay: Growth of Arabidopsis thaliana plants watered with synthetic miPEP; type: in vivo; conditions: A. thaliana; watered with 0.1 μM synthetic peptide, 3 weeks of growth, vs water
Method: The photographs show two plants (top views and side views) after 3 weeks of growth: a control plant watered with water (A), and a plant watered with a composition of 0.1 μM of synthetic peptide corresponding to AtmiPEP164a (B).
The photographs show two plants (top views and side views) after 3 weeks of growth: a control plant watered with water (A), and a plant watered with a composition of 0.1 μM of synthetic peptide corresponding to AtmiPEP319a1 (B).

[8] = tested on: AtmiR319a; assay: Overexpression of AtmiPEP319a1 in A. thaliana, qRT-PCR of AtmiR319a; type: in vivo, Arabidopsis thaliana; conditions: overexpression of AtmiPEP319a1 vs control plant
[9] = tested on: AtmiR164a; assay: Northern blot of miR164a in A. thaliana roots treated with synthetic AtmiPEP164a; type: in vivo, Arabidopsis thaliana; conditions: 0.1 μM synthetic miPEP164a in water vs water
Method: Northern blot analysis was carried out according to the protocol described in Lauressergues et al. Plant J, 72(3): 512-22, 2012.
The biological samples were homogenized in a buffer containing 0.1 M of NaCl, 2% of SDS, 50 mM of Tris-HCl (pH 9), 10 mM of EDTA (pH 8) and 20 mM of mercaptoethanol, and the RNA was extracted twice with a phenol/chloroform mixture and was precipitated with ethanol.
The RNA was loaded on PAGE 15% gel and transferred to a nylon membrane (HybondNX, Amersham). RNA was hybridized with a radioactive oligonucleotide probe labelled at its end, in order to detect the RNA U6 or for miR164a.
The hybridizations were carried out at 55° C. The hybridization signals were quantified using a phosphorimager (Fuji) and normalized with the signal of the specific probe of RNA U6.

[10] = tested on: AtmiR165a; assay: Expression of AtmiPEP165a (AtmiORF165a) in tobacco expressing AtmiR165a; type: in vivo, Nicotiana benthamiana; conditions: overexpression of AtmiORF165a
Method: as §1, §2, §3, §4

[11] = tested on: AtmiR165a; assay: Relative expression of AtmiR165a and its target genes in A. thaliana roots treated with AtmiPEP165a; type: in vivo, Arabidopsis thaliana; conditions: AtmiPEP165a 0.01, 0.1, 1 or 10 μM vs water
[12] = tested on: AtmiR165a; assay: Northern blot of miR165a in A. thaliana roots treated with synthetic AtmiPEP165a; type: in vivo, Arabidopsis thaliana; conditions: 0.1 μM synthetic miPEP165a in water vs water
[13] = tested on: Arabidopsis thaliana; assay: Root growth of Arabidopsis thaliana treated with AtmiPEP165a; type: in vivo; conditions: Arabidopsis thaliana treated with AtmiPEP165a vs control plant of the same age
[14] = tobacco expressing MtmiR171b, overexpression of MtmiPEP171b1 or 0.1 μM miPEP171b1, FIG. 9

“MFQTLYLFIYIHTNILLLS (listed as Arabidopsis thaliana) [AtmiPEP319a2]” was tested, and the “accumulation of AtmiR319a” value [1] was “increase”.

With “MLLHRLSKFCKIERDIVYIS (listed as Medicago truncatula) [MtmiPEP171b1]” the “number of lateral roots” value ([2]; overexpression of MtmiPEP171b1 (MtmiORF171b)) was “reduction”, the “number of lateral roots” value ([2]; watering with MtmiPEP171b1 at 0.1 μM once daily for 5 days) was “reduction” and the “relative expression of pre-MtmiR171b (expression of MtmiR171b)” value ([3]; tobacco expressing MtmiR171b, co-expression of MtmiPEP171b1 (MtmiORF171b ATG vs ATT), FIG. 7) was “increases”. For the same sequence, the “accumulation of MtmiR171b” value ([3]; tobacco expressing MtmiR171b, MtmiPEP171b1 sprayed (0.1 μM) twice, 12 h and 30 min before sampling) was “increase”, the “accumulation of MtmiR171b” value [3, 14] was “increase” and the “accumulation of pre-MtmiR171b” value [3, 14] was “increase”. For the same sequence, the “expression of MtmiR171b (pre-MtmiR171b) with MtmiPEP171b1 with or without protein tags” value ([3]; tobacco leaves, tags His, HA or GFP) was “increases the expression of MtmiR171b, and this effect is independent of the presence of tags”, the “relative expression of MtmiR171b” value ([3]; tobacco, vector expressing mtmiPEP171b vs empty vector, ATT mutant or degenerate ORF, FIG. 21) was “increases” and the “accumulation of MtmiR171b in the absence of translation of MtmiPEP171b1” value ([3]; tobacco, pri-MtmiR171b with ATG of miORF171b replaced with ATT (or miORF deleted) vs wild-type pri-MtmiR171b) was “marked decrease”. The “accumulation of MtmiR171b” value [4] was “increase”, the “expression of the HAM1 gene” value [4] was “decrease” and the “expression of the HAM2 gene” value [4] was “decrease”. For the same sequence, the “effect on the accumulation of the other miRNAs (precursors of MtmiR169, 169a, 171a, 171h, 393a, 393b, 396a, 396b)” value [5] was “not on the other miRNAs”, the “accumulation of MtmiR171b” value ([6]; vs control plant) was “increase” and the “expression of the HAM1 gene” value ([6]; vs control plant) was “decrease”. For the same sequence, the “expression of the HAM2 gene” value ([6]; vs control plant) was “decrease” and the “accumulation of pre-MtmiR171b” value ([6]; vs control plants) was “increase”.

In the case of “MNIHTYHHLLFPSLVFHQSSDVPNALSLHIHTYEYIIVVIDPFRITLAFR (listed as Arabidopsis thaliana) [AtmiPEP319a1]”, the plant growth [7] is reported as “increases plant growth significantly” and the “accumulation of AtmiR319a” value [8] is reported as “increase”.

In the case of “MPSWHGMVLLPYVKHTHASTHTHTHNIYGCACELVFH (listed as Arabidopsis thaliana) [AtmiPEP164a1]”, the plant growth [7] is reported as “increases plant growth significantly” and the “accumulation of miR164a (Northern blot)” value [9] is reported as “increase”.

For “MRVKLFQLRGMLSGSRIL (listed as Arabidopsis thaliana) [AtmiPEP165a]”, the “accumulation of AtmiR165a” value [10] was “increase”, the “accumulation of AtmiR165a” value [11] was “dose-dependent effect” and the “regulation of the target genes of miR165a (PHV, PHB and REV)” value [11] was “negative regulation”. For the same sequence, the “accumulation of miR165a (Northern blot)” value [12] was “increase” and the root growth phenotype [13] was “greatly accelerated root growth”.
